Results reported in the CheMixHub viscosity set.
“And” between values parts separate entries of the source, which are not always exact repeats. Identical values can stand only once.

Assay: xn = mol fraction of the nth substance listed

CCN(CC)c1ccccc1 + CCCCCCCCO
viscosity [mPa·s], 100 kPa
Details	x1 = 0.1141	x1 = 0.2548	x1 = 0.3537	x1 = 0.4726	x1 = 0.5725	x1 = 0.6945	x1 = 0.7795	x1 = 0.8584	x1 = 0.9317
303.15 K	5.389	4.382	3.806	3.235	2.842	2.446	2.212	2.016	1.847
308.15 K	4.42	3.49	2.987	2.519	2.221	1.947	1.8	1.684	1.587
313.15 K	3.684	2.854	2.428	2.056	1.837	1.653	1.56	1.487	1.421
318.15 K	3.135	2.356	1.976	1.667	1.503	–	1.339	1.305	1.271

Cc1ccc(C(C)C)c(O)c1 + CC12CCC(CC1)C(C)(C)O2
viscosity [mPa·s], 101.33 kPa
Details	x1 = 0.5865	x1 = 0.6068	x1 = 0.6272	x1 = 0.6462	x1 = 0.6661	x1 = 0.6858	x1 = 0.7057
293.15 K	43.71	45.56	46.15	46.86	46.28	45.95	44.22
298.15 K	29.92	30.8	31.35	31.41	31.27	30.92	29.82

CCOC(=O)CC(=O)OCC + O=C1CCCC1
viscosity [mPa·s], 101 kPa
Details	x1 = 0.0758	x1 = 0.1566	x1 = 0.2437	x1 = 0.3678	x1 = 0.4601	x1 = 0.5678	x1 = 0.6456	x1 = 0.7598	x1 = 0.8459	x1 = 0.9215
303.15 K	1.061	1.125	1.193	1.288	1.356	1.433	1.487	1.565	1.624	1.675
308.15 K	0.981	1.038	1.098	1.18	1.24	1.307	1.355	1.425	1.477	1.524
313.15 K	0.913	0.964	1.018	1.094	1.15	1.213	1.257	1.321	1.369	1.412

CCCCCCCCCCN + C1CCCCC1
303.15 K, 101 kPa
Details	viscosity [mPa·s]
x2 = 0.2056	1.562
x2 = 0.3987	1.361
x2 = 0.5065	1.239
x2 = 0.5875	1.159
x2 = 0.7947	0.9708

FC(F)(Cl)C(F)(F)Cl + FC(F)Cl
101 kPa
Details	viscosity [mPa·s]
293.25 K, x2 = 0.182	0.3196
293.25 K, x2 = 0.457	0.2521
293.25 K, x2 = 0.568	0.2391
293.25 K, x2 = 0.663	0.2175
293.25 K, x2 = 0.748	0.1992
293.35 K, x2 = 0.947	0.1767
293.75 K, x2 = 0.329	0.2853
312.85 K, x2 = 0.457	0.2097
312.85 K, x2 = 0.663	0.1757
312.95 K, x2 = 0.182	0.2474
312.95 K, x2 = 0.821	0.1515
313.05 K, x2 = 0.568	0.1902
313.05 K, x2 = 0.748	0.1648
313.05 K, x2 = 0.947	0.141
313.15 K, x2 = 0.891	0.1461
313.55 K, x2 = 0.329	0.2284

CCCCCCCCCCN + c1ccccc1
303.15 K, 101 kPa
Details	viscosity [mPa·s]
x2 = 0.2011	1.464
x2 = 0.3988	1.174
x2 = 0.4963	1.043
x2 = 0.5993	0.923
x2 = 0.7973	0.7207

Clc1ccc(Cl)c(Cl)c1 + CCNc1ccccc1
viscosity [mPa·s], 101 kPa
Details	303.15 K	308.15 K
x2 = 0.0875	1.784	1.618
x2 = 0.1559	1.783	1.615
x2 = 0.2286	1.782	1.612
x2 = 0.2938	1.781	1.609
x2 = 0.3656	1.779	1.607
x2 = 0.4225	1.777	1.604
x2 = 0.4952	1.775	1.6
x2 = 0.5659	1.772	1.595
x2 = 0.6359	1.768	1.589
x2 = 0.7025	1.763	1.584
x2 = 0.7812	1.758	1.577
x2 = 0.8525	1.752	1.571
x2 = 0.9199	1.748	1.565

CCCC(C)CO (stereo not drawn) + CO
298.15 K, 101.33 kPa
Details	viscosity [mPa·s]
x2 = 0.0849	4.645
x2 = 0.2146	3.757
x2 = 0.3193	3.053
x2 = 0.4183	2.526
x2 = 0.5192	2.018
x2 = 0.6077	1.676
x2 = 0.7069	1.296
x2 = 0.8045	1.018
x2 = 0.9002	0.7552

CC[n+]1ccn(C)c1.NCC(=O)[O-] + CCn1cc[n+](C)c1.N#C[C-](C#N)C#N
Details	viscosity [mPa·s]
313.15 K, 101 kPa, x2 = 0.5001	22.25

CCCC(C)CO (stereo not drawn) + CCO
298.15 K, 101.33 kPa
Details	viscosity [mPa·s]
x2 = 0.1048	4.615
x2 = 0.2134	3.996
x2 = 0.3147	3.481
x2 = 0.4122	3.014
x2 = 0.5011	2.664
x2 = 0.6144	2.253
x2 = 0.7136	1.884
x2 = 0.7984	1.623
x2 = 0.9049	1.303

CC(N)C(=O)O (stereo not drawn) + O
viscosity, 101 kPa
Details	x1 = 0.0004	x1 = 0.0007	x1 = 0.001	x1 = 0.0018	x1 = 0.0022	x1 = 0.0025	x1 = 0.0029	x1 = 0.0032	x1 = 0.0036
293.15 K	1.006 mPa·s	1.012 mPa·s	1.017 mPa·s and 1.022 mPa·s	–	–	1.038 mPa·s	1.043 mPa·s	–	–
298.15 K	0.8956 mPa·s	0.9003 mPa·s	0.9054 mPa·s	0.915 mPa·s	0.9199 mPa·s	0.9246 mPa·s	0.929 mPa·s	0.934 mPa·s	0.9389 mPa·s
303.15 K	0.8028 mPa·s	0.8077 mPa·s	0.8122 mPa·s	0.8213 mPa·s	0.8256 mPa·s	0.8299 mPa·s	0.8341 mPa·s	0.8382 mPa·s	0.8429 mPa·s
308.15 K	0.7254 mPa·s	0.7303 mPa·s	0.7349 mPa·s	0.7436 mPa·s	0.7478 mPa·s	0.7519 mPa·s	0.7558 mPa·s	0.7599 mPa·s	0.7635 mPa·s
313.15 K	0.6592 mPa·s	0.6641 mPa·s	0.6726 mPa·s	0.6767 mPa·s	0.6804 mPa·s	–	0.688 mPa·s	0.6916 mPa·s	0.6953 mPa·s

Cc1ccc(C(C)C)c(O)c1 + CCCCCCCCCCCCCCCC(=O)O
100 kPa, x2 = 0.2
Details	viscosity [mPa·s]
313.15 K	9.21
318.15 K	7.54
323.15 K	6.29
